Test results reported in patent US9745360B2 (Sanofi, priority 2012, dated 2017).
Where two headings read alike, the source gives them in different places. *1 amine or outer side, *2 acyl side, *3 side chain or, on linkers, in order; H or OH if unused. Where a SMILES comes first, the peptide text is derived from it. Side-chain parts run from the residue outwards. [ ]: non-standard residue; d: D form. The star is where a group is joined. γGlu = O=C(O)[C@H](CCC(=O)[*:2])N[*:1]; Stearoyl = CCCCCCCCCCCCCCCCCC(=O)*; Palmitoyl = CCCCCCCCCCCCCCCC(=O)*; d(αMeK) = C[C@@](N)(CCCCN)C(=O)O; αMeOrn = C[C@](N)(CCCN)C(=O)O; Aib = CC(C)(N)C(=O)O

Tests used:
[1] = biological target: T1, human GIP receptor (hGIP R) (Homo sapiens, UniProt P48546); assay: cAMP response (HTRF) of HEK-293 cells stably expressing human GIP receptor; assay type: cell-based; conditions: Table 7; cAMP formation
T1 construct: expressed in transfected cells
T1 sequence (P48546 22-466): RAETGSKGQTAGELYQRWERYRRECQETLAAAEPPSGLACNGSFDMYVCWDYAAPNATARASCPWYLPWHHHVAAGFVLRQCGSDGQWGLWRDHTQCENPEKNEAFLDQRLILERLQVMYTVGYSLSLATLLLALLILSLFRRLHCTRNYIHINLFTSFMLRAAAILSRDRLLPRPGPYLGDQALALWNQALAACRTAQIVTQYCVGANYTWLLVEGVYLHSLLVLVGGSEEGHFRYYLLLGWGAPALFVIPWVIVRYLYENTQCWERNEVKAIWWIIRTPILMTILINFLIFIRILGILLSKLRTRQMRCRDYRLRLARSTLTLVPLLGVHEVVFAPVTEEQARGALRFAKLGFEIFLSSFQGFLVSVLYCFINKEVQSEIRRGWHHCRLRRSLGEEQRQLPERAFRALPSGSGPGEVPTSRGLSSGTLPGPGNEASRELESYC
Description: (§1) cAMP content of cells was determined using a kit from Cisbio Corp. (cat. no. 62AM4PEC) based on HTRF (Homogenous Time Resolved Fluorescence). For preparation, cells were split into T175 culture flasks and grown overnight to near confluency in medium (DMEM/10% FBS). Medium was then removed and cells washed with PBS lacking calcium and magnesium, followed by proteinase treatment with accutase (Sigma-Aldrich cat. no. A6964). Detached cells were washed and resuspended in assay buffer (1×HBSS; 20 mM HEPES, 0.1% BSA, 2 mM IBMX) and cellular density determined. They were then diluted to 400000 cells/ml and 25 μl-aliquots dispensed into the wells of 96-well plates. For measurement, 25 μl of test compound in assay buffer was added to the wells, followed by incubation for 30 minutes at room temperature.

[2] = biological target: T2, human glucagon receptor (hGLUC R) (Homo sapiens, UniProt P47871); assay: cAMP response (HTRF) of HEK-293 cells stably expressing human glucagon receptor; assay type: cell-based; conditions: Table 7; cAMP formation
T2 construct: expressed in transfected cells
Description: as §1

[3] = biological target: T3, human GLP-1 receptor (hGLP-1 R) (Homo sapiens, UniProt P43220); assay: cAMP response (HTRF) of HEK-293 cells stably expressing human GLP-1 receptor; assay type: cell-based; conditions: Table 7; cAMP formation
T3 construct: expressed in transfected cells
Description: as §1

[4] = test system: non-fasted female diabetic dbdb-mice; assay: Glucose lowering in non-fasted female diabetic dbdb-mice; assay type: in vivo; conditions: 3 μg/kg s.c., at 240 min, kept to 480 min, baseline 20-22 mmol/l
Excerpt: Female diabetic dbdb-mice of mean non-fasted glucose value of 20-22 mmol/l and a body weight of 42 g+/−0.6 g (SEM) were used. Mice were individually marked and were adapted to housing conditions for at least one week.
3-5 days prior to study start mice were assigned to groups and cages (4 mice per cage, 8 per group, control group 16) according to their non-fasted glucose values to ensure even distribution of lower and higher values between groups (stratification). On the study day, mice were weighed and dosed (t=0). Immediately prior to compound administration feed was removed while water remained available, and a first blood sample at a tail incision was drawn (baseline). Further blood samples were drawn at the tail incision at 30, 60, 90, 120, 240, 360, and 480 min.
Statistical analyses are performed with Everstat Version 6.0 based on SAS by 2-way-ANOVA on repeated measures, followed by Dunnett's post-hoc test against vehicle-control. Differences are considered statistically significant at the p<0.05 level.

[5] = Pharmacokinetic testing in mice, s.c., LC/MS of plasma; assay type: in vivo; conditions: mouse, sc, 1 mg/kg s.c.
Description: Mice were dosed 1 mg/kg subcutaneously (s.c.).
Pharmacokinetic profiles were determined as described in Methods.

[6] = Chemical stability in solution, 7 days at 25° C., % remaining peptide; assay type: physicochemical; conditions: % remaining peptide after 7 days at 25° C.
Description: The chemical stability is expressed as “% remaining peptide”.
(§2) Solubility and chemical stability of peptidic compounds were assessed as described in Methods.

[7] = Solubility testing in buffer, HPLC-UV of supernatant; assay type: physicochemical; conditions: buffer, target concentration 1.0 mg/mL
Description: as §2

T3 sequence (P43220 24-463): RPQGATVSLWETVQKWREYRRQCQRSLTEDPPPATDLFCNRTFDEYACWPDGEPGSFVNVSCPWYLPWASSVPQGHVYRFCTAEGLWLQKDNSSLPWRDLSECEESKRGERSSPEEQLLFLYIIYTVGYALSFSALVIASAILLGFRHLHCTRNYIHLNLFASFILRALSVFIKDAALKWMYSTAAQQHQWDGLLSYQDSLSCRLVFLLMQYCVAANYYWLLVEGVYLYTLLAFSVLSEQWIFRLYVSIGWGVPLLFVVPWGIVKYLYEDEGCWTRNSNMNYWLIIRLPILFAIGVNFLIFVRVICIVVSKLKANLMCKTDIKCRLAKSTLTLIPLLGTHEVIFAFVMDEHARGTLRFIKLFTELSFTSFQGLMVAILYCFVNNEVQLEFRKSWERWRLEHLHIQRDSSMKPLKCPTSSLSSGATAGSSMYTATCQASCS
T2 sequence (P47871 26-477): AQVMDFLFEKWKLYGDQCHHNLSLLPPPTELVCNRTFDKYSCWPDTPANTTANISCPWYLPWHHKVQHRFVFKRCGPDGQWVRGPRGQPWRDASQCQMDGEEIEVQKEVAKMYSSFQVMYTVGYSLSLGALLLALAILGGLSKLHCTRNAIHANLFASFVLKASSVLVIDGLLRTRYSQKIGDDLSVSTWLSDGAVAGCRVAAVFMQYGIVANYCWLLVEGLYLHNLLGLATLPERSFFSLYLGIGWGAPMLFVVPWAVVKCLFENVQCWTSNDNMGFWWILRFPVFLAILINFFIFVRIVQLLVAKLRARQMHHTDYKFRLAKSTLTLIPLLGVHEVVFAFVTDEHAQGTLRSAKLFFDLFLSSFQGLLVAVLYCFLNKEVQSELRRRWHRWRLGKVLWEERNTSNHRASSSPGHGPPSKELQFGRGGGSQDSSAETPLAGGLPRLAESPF

| Compound | EC50 [1] | EC50 [2] | EC50 [3] | maximal effect, glucose reduction [4] | Cmax [5] | half-life [5] | Stability (pH 4.5) ([6]; pH 4.5) | Stability (pH 7.4) ([6]; pH 7.4) | solubility at 2 h ([7]; pH 4.5, read-out: Solubility (pH 4.5)) | solubility at 2 h ([7]; pH 7.4, read-out: Solubility (pH 7.4)) |
| --- | --- | --- | --- | --- | --- | --- | --- | --- | --- | --- |
| CCCCCCCCCCCCCCCC(=O)N[C@@H](CCC(=O)NCCCC[C@H](NC(=O)[C@H](CCC(N)=O)NC(=O)[C@@H](NC(=O)[C@H](CO)NC(=O)[C@H](CC(C)C)NC(=O)[C@H](CC(=O)O)NC(=O)[C@H](CO)NC(=O)[C@@H](NC(=O)[C@H](Cc1ccccc1)NC(=O)[C@@H](NC(=O)CNC(=O)[C@H](CCC(=O)O)NC(=O)C(C)(C)NC(=O)[C@@H](N)Cc1ccc(O)cc1)[C@@H](C)O)[C@@H](C)O)[C@@H](C)CC)C(=O)N[C@@H](CCC(=O)O)C(=O)N[C@@H](CCC(=O)O)C(=O)N[C@@H](CCCNC(=N)N)C(=O)N[C@@H](C)C(=O)N[C@@H](C)C(=O)N[C@](C)(CCCCN)C(=O)N[C@@H](CCC(=O)O)C(=O)N[C@@H](Cc1ccccc1)C(=O)N[C@H](C(=O)N[C@@H](CCC(=O)O)C(=O)N[C@@H](Cc1c[nH]c2ccccc12)C(=O)N[C@@H](CC(C)C)C(=O)N[C@@H](CCCCN)C(=O)N[C@@H](CC(N)=O)C(=O)N[C@H](C(=O)NCC(=O)N1CCC[C@H]1C(=O)N[C@@H](CO)C(=O)N[C@@H](CO)C(=O)NCC(=O)N[C@@H](C)C(=O)N1CCC[C@H]1C(=O)N1CCC[C@H]1C(=O)N1CCC[C@H]1C(=O)N[C@@H](CO)C(N)=O)[C@@H](C)O)[C@@H](C)CC)C(=O)O [SEQ ID NO: 9, Y-Aib-E-G-T-F-T-S-D-L-S-I-Q-K(γE-x53)-E-E-R-A-A-(R)MeLys-E-F-I-E-W-L-K-N-T-G-P-S-S-G-A-P-P-P-S-NH2] (H-Y[Aib]EGTFTSDLSIQK([γGlu-Palmitoyl])EERAA[d(αMeK)]EFIEWLKNTGPSSGAPPPS-NH2) | 0.0932 nM | > 1000 nM | 0.0135 nM | – | – | – | – | – | – | – |
| CCCCCCCCCCCCCCCCCC(=O)N[C@@H](CCC(=O)NCCCC[C@H](NC(=O)[C@H](CCC(N)=O)NC(=O)[C@@H](NC(=O)[C@H](CO)NC(=O)[C@H](CC(C)C)NC(=O)[C@H](CC(=O)O)NC(=O)[C@H](CO)NC(=O)[C@@H](NC(=O)[C@H](Cc1ccccc1)NC(=O)[C@@H](NC(=O)CNC(=O)[C@H](CCC(N)=O)NC(=O)C(C)(C)NC(=O)[C@@H](N)Cc1ccc(O)cc1)[C@@H](C)O)[C@@H](C)O)[C@@H](C)CC)C(=O)N[C@@H](CC(=O)O)C(=O)N[C@@H](CCC(=O)O)C(=O)N[C@@H](CCC(N)=O)C(=O)N[C@@H](CCCNC(=N)N)C(=O)N[C@@H](C)C(=O)N[C@@](C)(CCCN)C(=O)N[C@@H](CCC(=O)O)C(=O)N[C@@H](Cc1ccccc1)C(=O)N[C@H](C(=O)N[C@@H](CCC(=O)O)C(=O)N[C@@H](Cc1c[nH]c2ccccc12)C(=O)N[C@@H](CC(C)C)C(=O)N[C@@H](CCCCN)C(=O)N[C@@H](C)C(=O)NCC(=O)NCC(=O)N1CCC[C@H]1C(=O)N[C@@H](CO)C(=O)N[C@@H](CO)C(=O)NCC(=O)N[C@@H](C)C(=O)N1CCC[C@H]1C(=O)N1CCC[C@H]1C(=O)N1CCC[C@H]1C(=O)N[C@@H](CO)C(N)=O)[C@@H](C)CC)C(=O)O [SEQ ID NO: 15, Y-Aib-Q-G-T-F-T-S-D-L-S-I-Q-K(γE-x70)-D-E-Q-R-A-(S)MeOrn-E-F-I-E-W-L-K-A-G-G-P-S-S-G-A-P-P-P-S-NH2] (H-Y[Aib]QGTFTSDLSIQK([γGlu-Stearoyl])DEQRA[αMeOrn]EFIEWLKAGGPSSGAPPPS-NH2) | 0.0089 nM | – | 0.0161 nM | ~12 mmol/L | 3740 ng/mL | 2.9 h | 98.0% | 98.0% | > 1000 µg/mL | > 1000 µg/mL |
